Where two headings read alike, the source gives them in different places.
Assays:
[1] = system: K. pneumonaie strain in clinical urine sample BIUR0084; test: Automated MultiPath AST cartridge on clinical urine sample; assay type: cell-based; conditions: clinical urine sample BIUR0084 (K. pneumoniae); 2 antibiotic concentrations; 4 h growth; fold growth value of 2
[2] = system: P. aeruginosa; conditions: cited from earlier work

Cc1nnc(SCC2=C(C(=O)O)N3C(=O)[C@@H](NC(=O)Cn4cnnn4)[C@H]3SC2)s1 [Cefazolin]
resistant: sensitive/resistant call by MulitPath [1]

Trimethoprim/Sulfamethoxazole
resistant: sensitive/resistant call by MulitPath [1]
Intrinsically: previously determined antibiotic resistance ([2]; P. aeruginosa ATCC 27853) | previously determined antibiotic resistance ([2]; P. aeruginosa CDC0105) | previously determined antibiotic resistance ([2]; P. aeruginosa CDC0111) | previously determined antibiotic resistance ([2]; P. aeruginosa CDC0232) | previously determined antibiotic resistance ([2]; P. aeruginosa CDC0242) | previously determined antibiotic resistance ([2]; P. aeruginosa CDC0247) | previously determined antibiotic resistance ([2]; P. aeruginosa CDC0251) | previously determined antibiotic resistance ([2]; P. aeruginosa CDC0253) | previously determined antibiotic resistance ([2]; P. aeruginosa CDC0259) | previously determined antibiotic resistance ([2]; P. aeruginosa CDC0261) | previously determined antibiotic resistance ([2]; P. aeruginosa CDC0262)

Reference: patent US20210349082A1, “ANALYSIS INSTRUMENT” (First Light Diagnostics, Inc., priority 2018, published 2021)
